In brackets after ≈: the same amount, converted by molar mass. Where two headings read alike, the source gives them in different places.
Assays:
Ps. aeruginosa AK 109 = experiment: in vitro antibacterial activity, agar plate dilution method (MIC); type: cell-based, Pseudomonas aeruginosa; settings: Pseudomonas aeruginosa, AK109, 16 h
Outline: (§1)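 MIC in μg/ml, read after 16 h at 37° C. on Mueller Hinton agar carrying graded compound levels; inoculum 10^6 CFU/ml from overnight Mueller Hinton broth.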

Ps. aeruginosa AKR17 = experiment: as above; type: cell-based, Pseudomonas aeruginosa; settings: Pseudomonas aeruginosa
Outline: as §1

Ps. aeruginosa IF03445 = experiment: as above; type: cell-based, Pseudomonas aeruginosa; settings: Pseudomonas aeruginosa, 10^6 CFU/ml
Outline: as §1

E. coli CSH(RE45) = experiment: microbe, parasite or virus in culture; type: cell-based; settings: 10^6 CFU/ml; for MIC: Escherichia coli, 16 h, read-out: Minimum Inhibitory Concentration (MIC), *E. coli CSH(RE45), lactamase-producing strain
Outline: as §1

E. coli CSH2 (RK1) = experiment: microbe, parasite or virus in culture; type: cell-based; settings: 10^6 CFU/ml; for MIC: Escherichia coli, 16 h, read-out: Minimum Inhibitory Concentration (MIC), *E. coli CSH2 (RK1), lactamase-producing strain
Outline: as §1

Ps. cepacia 23 = experiment: in vitro antibacterial activity, agar plate dilution method (MIC); type: cell-based, Pseudomonas cepacia; settings: for MIC: read-out: Minimum Inhibitory Concentration (MIC)
Outline: as §1

E. coli NIHJ JC2 = experiment: as above; type: cell-based; settings: for MIC: Escherichia coli, NIHJJC2, 16 h, read-out: Minimum Inhibitory Concentration (MIC), E. coli NIHJ JC2, 10^6 CFU/ml, 37° C.
Outline: as §1

S. aureus 209P NIHJ-JC1 = experiment: as above; type: cell-based; settings: 10^6 CFU/ml, 37° C., 16 hours; for MIC: Staphylococcus aureus, 16 h
Outline: as §1

E. coli GN5482 = experiment: as above; type: cell-based; settings: for MIC: Escherichia coli, GN5482, 16 h, read-out: Minimum Inhibitory Concentration (MIC)
Outline: as §1

K. pneumoniae No. 42 = experiment: as above; type: cell-based; settings: 10^6 CFU/ml; for MIC: Klebsiella pneumoniae, NO.42, 16 h, read-out: Minimum Inhibitory Concentration (MIC), *K. pneumoniae No. 42, lactamase-producing strain
Outline: as §1

K. pneumoniae PCI-602 = experiment: as above; type: cell-based; settings: 10^6 CFU/ml; for MIC: Klebsiella pneumoniae, PCI602, 16 h, read-out: Minimum Inhibitory Concentration (MIC), K. pneumoniae PCI-602
Outline: as §1

K. oxytoca GN10650 = experiment: as above; type: cell-based; settings: 10^6 CFU/ml; for MIC: Klebsiella oxytoca, GN10650, 16 h, read-out: Minimum Inhibitory Concentration (MIC), *K. oxytoca GN10650, lactamase-producing strain
Outline: as §1

P. vulgaris No. 33 = experiment: as above; type: cell-based; settings: 10^6 CFU/ml; for MIC: Proteus vulgaris, NO.33, 16 h, read-out: Minimum Inhibitory Concentration (MIC), *P. vulgaris No. 33, lactamase-producing strain
Outline: as §1

E. cloacae Nek 39 = experiment: as above; type: cell-based; settings: 10^6 CFU/ml; for MIC: Enterobacter cloacae, NEK39, 16 h, read-out: Minimum Inhibitory Concentration (MIC), *E. cloacae Nek 39, lactamase-producing strain
Outline: as §1

S. marcescens No. 16-2 = experiment: as above; type: cell-based; settings: for MIC: Serratia marcescens, NO.162, 16 h
Outline: as §1

E. cloacae 963 = experiment: as above; type: cell-based; settings: 10^6 CFU/ml
Outline: as §1

S. marcescens IAM 1184 = experiment: as above; type: cell-based; settings: for MIC: Serratia marcescens, IAM1184, 16 h, read-out: Minimum Inhibitory Concentration (MIC)
Outline: as §1

P. vulgaris HX-19 = experiment: as above; type: cell-based; settings: P. vulgaris HX-19, 10^6 CFU/ml; for MIC: Proteus vulgaris, HX19, 16 h, read-out: Minimum Inhibitory Concentration (MIC)
Outline: as §1

M. morganii GN5407 = experiment: as above; type: cell-based; settings: 10^6 CFU/ml; for MIC: Morganella morganii, GN5407, 16 h, read-out: Minimum Inhibitory Concentration (MIC), *M. morganii GN5407, lactamase-producing strain
Outline: as §1

A. calcoaceticus No. 4 = experiment: as above; type: cell-based, Acinetobacter calcoaceticus; settings: 10^6 CFU/ml; for MIC: Acinetobacter calcoaceticus, NO.4, 16 h
Outline: as §1

[1] = 16 h, Ps. aeruginosa AKR17, 10^6 CFU/ml, read-out: Minimum Inhibitory Concentration (MIC)
[2] = Burkholderia cepacia, 16 h, Ps. cepacia 23, 10^6 CFU/ml
[3] = read-out: Minimum Inhibitory Concentration (MIC), S. aureus 209P NIHJ-JC1
[4] = read-out: Minimum Inhibitory Concentration (MIC), *S. marcescens No. 16-2, lactamase-producing strain, 10^6 CFU/ml
[5] = Enterobacter cloacae, 16 h, E. cloacae 963, read-out: Minimum Inhibitory Concentration (MIC)
[6] = S. marcescens IAM 1184, 10^6 CFU/ml
[7] = read-out: Minimum Inhibitory Concentration (MIC), A. calcoaceticus No. 4
[8] = read-out: Minimum Inhibitory Concentration (MIC)
[9] = IF03445, 16 h, read-out: Minimum Inhibitory Concentration (MIC), Ps. aeruginosa IF03445
[10] = Enterobacter cloacae, 963, 16 h, read-out: Minimum Inhibitory Concentration (MIC), E. cloacae 963

Compound	MIC (Ps. aeruginosa AKR17; [1]) [µg/mL]	MIC (E. coli CSH(RE45)) [µg/mL]	MIC (E. coli CSH2 (RK1)) [µg/mL]	MIC (Ps. cepacia 23; [2]) [µg/mL]	MIC (E. coli NIHJ JC2) [µg/mL]	MIC (S. aureus 209P NIHJ-JC1; [3]) [µg/mL]	MIC (E. coli GN5482) [µg/mL]	MIC (K. pneumoniae No. 42) [µg/mL]	MIC (K. pneumoniae PCI-602) [µg/mL]	MIC (K. oxytoca GN10650) [µg/mL]	MIC (P. vulgaris No. 33) [µg/mL]	MIC (E. cloacae Nek 39) [µg/mL]	MIC (S. marcescens No. 16-2; [4]) [µg/mL]	MIC (S. marcescens IAM 1184; [6]) [µg/mL]	MIC (P. vulgaris HX-19) [µg/mL]	MIC (M. morganii GN5407) [µg/mL]	MIC (A. calcoaceticus No. 4; [7]) [µg/mL]	MIC (Ps. aeruginosa AK 109; [8]) [µg/mL]	MIC (Ps. aeruginosa IF03445; [9]) [µg/mL]	MIC (E. cloacae 963; [10]) [µg/mL]	further results
CCO/N=C(\C(=O)N[C@@H]1C(=O)N2C(C(=O)O)=C(CSc3nnc(-c4ccc(OC(C)=O)c(OC(C)=O)c4)o3)CS[C@H]12)c1csc(N)n1 [Ex. 6, sodium 3-[5-(3,4-diacetoxyphenyl)-1,3,4-oxadiazol-2-yl]thiomethyl-78-[2-(2-aminothiazol-4-yl)-2-ethoxyiminoacetamido]-3-cephem-4-carboxylate]	> 100	0.78	0.0125	0.05	0.05	1.56	0.39	0.025	< 0.006	0.39	0.0125	0.05	0.78	< 0.006	< 0.006	0.0125	0.1				MIC (Ps. aeruginosa AK 109; Ps. aeruginosa AK 109, 10^6 CFU/ml, read-out: Minimum Inhibitory Concentration (MIC)): 0.1 µg/mL; MIC (Ps. aeruginosa IF03445; 16 h, Ps. aeruginosa IF03445, read-out: Minimum Inhibitory Concentration (MIC)): 0.2 µg/mL; MIC (E. cloacae 963; [5]): < 0.006 µg/mL
CO/N=C(\C(=O)N[C@@H]1C(=O)N2C(C(=O)O)=C(CSc3nc(-c4ccc(O)cc4)cs3)CS[C@H]12)c1csc(N)n1 [compound 10, sodium 7β-[2-(2-aminothiazol-4-yl)-2-methoxyiminoacetamido]-3-[4-(4-hydroxyphenyl)thiazol-2-yl]thiomethyl-3-cephem-4-carboxylate, reference compound]	> 100	0.78	0.39		0.78		0.39	1.56	< 0.006	3.12	0.78	3.12			< 0.006	0.78		12.5	6.25	1.56	MIC (Ps. cepacia 23; Burkholderia cepacia, 23, 16 h): 3.12 µg/mL; MIC (S. aureus 209P NIHJ-JC1; S. aureus 209P NIHJ-JC1, read-out: Minimum Inhibitory Concentration (MIC)): 0.2 µg/mL; MIC (S. marcescens No. 16-2; [8]): 3.12 µg/mL; MIC (S. marcescens IAM 1184): 0.78 µg/mL; MIC (A. calcoaceticus No. 4; A. calcoaceticus No. 4, read-out: Minimum Inhibitory Concentration (MIC)): 50 µg/mL
Nc1nc(C(=NOC2(C(=O)O)CC2)C(=O)NC2C(=O)N3C(C(=O)O)=C(CSc4nc(-c5ccc(O)c(O)c5)cs4)CSC23)cs1 (stereo not drawn) [Ex. 45, disodium 7β-[2-(2-aminothiazol-4-yl)-2-(1-carboxvlate-1-cyclopropoxyimino)acetamido]-3-[4-(3,4-dihvdroxvphenyl)thiazol-2-yl]thiomethyl-3-cephem-4-carboxylate]		0.05	0.025	< 0.006	0.2	6.25	0.39	0.1	< 0.006	0.1	0.025	0.05		0.05	< 0.006	0.05	0.1		0.78	0.05	MIC (Ps. aeruginosa AK 109; read-out: Minimum Inhibitory Concentration (MIC), Ps. aeruginosa AK 109, 10^6 CFU/ml): 0.78 µg/mL; MIC (Ps. aeruginosa AKR17; AKR17, 16 h, read-out: Minimum Inhibitory Concentration (MIC), Ps. aeruginosa AKR17, 10^6 CFU/ml): 6.25 µg/mL; MIC (S. marcescens No. 16-2; [8]): 0.39 µg/mL
Nc1nc(C(=NOC(C(=O)O)c2ccccc2)C(=O)NC2C(=O)N3C(C(=O)O)=C(CSc4nc(C(=O)O)c(-c5ccc(O)c(O)c5)s4)CSC23)cs1 (single isomer, unassigned) [Example 51 DB]																		0.39 (≈ 0.497 µM)	0.39 (≈ 0.497 µM)	0.05 (≈ 0.0637 µM)	MIC (Ps. aeruginosa AKR17; AKR17, 16 h, read-out: Minimum Inhibitory Concentration (MIC)): 0.39 µg/mL (≈ 0.497 µM); Minimum Inhibitory Concentration (MIC) (E. coli CSH(RE45); *E. coli CSH(RE45), lactamase-producing strain): 0.0125 µg/mL; Minimum Inhibitory Concentration (MIC) (E. coli CSH2 (RK1); *E. coli CSH2 (RK1), lactamase-producing strain): 0.0125 µg/mL; Minimum Inhibitory Concentration (MIC) (Ps. cepacia 23; Ps. cepacia 23, 10^6 CFU/ml): < 0.006 µg/mL; Minimum Inhibitory Concentration (MIC) (E. coli NIHJ JC2; E. coli NIHJ JC2, 10^6 CFU/ml, 37° C., 16 hours): 0.39 µg/mL; Minimum Inhibitory Concentration (MIC) (S. aureus 209P NIHJ-JC1; S. aureus 209P NIHJ-JC1): 25 µg/mL; Minimum Inhibitory Concentration (MIC) (E. coli GN5482; *E. coli GN5482, lactamase-producing strain, 10^6 CFU/ml): 0.78 µg/mL; Minimum Inhibitory Concentration (MIC) (K. pneumoniae No. 42; *K. pneumoniae No. 42, lactamase-producing strain): 0.05 µg/mL; Minimum Inhibitory Concentration (MIC) (K. pneumoniae PCI-602; K. pneumoniae PCI-602): < 0.006 µg/mL; Minimum Inhibitory Concentration (MIC) (K. oxytoca GN10650; *K. oxytoca GN10650, lactamase-producing strain): 0.025 µg/mL; Minimum Inhibitory Concentration (MIC) (P. vulgaris No. 33; *P. vulgaris No. 33, lactamase-producing strain): 0.0125 µg/mL; Minimum Inhibitory Concentration (MIC) (E. cloacae Nek 39; *E. cloacae Nek 39, lactamase-producing strain): 0.05 µg/mL; Minimum Inhibitory Concentration (MIC) (S. marcescens No. 16-2; *S. marcescens No. 16-2, lactamase-producing strain, 10^6 CFU/ml): 0.78 µg/mL; Minimum Inhibitory Concentration (MIC) (S. marcescens IAM 1184; [6]): 0.05 µg/mL; Minimum Inhibitory Concentration (MIC) (P. vulgaris HX-19): < 0.006 µg/mL; Minimum Inhibitory Concentration (MIC) (M. morganii GN5407; *M. morganii GN5407, lactamase-producing strain): 0.05 µg/mL; Minimum Inhibitory Concentration (MIC) (A. calcoaceticus No. 4; A. calcoaceticus No. 4): 0.1 µg/mL
CO/N=C(\C(=O)N[C@@H]1C(=O)N2C(C(=O)O)=C(CSc3nnc(-c4ccc(O)c(O)c4)o3)CS[C@H]12)c1csc(N)n1 [Ex. 1, sodium 7β-[2-(2-aminothiazol-4-yl)-2-methoxyiminoacetamido]-3-[5-(3, 4dihydroxyphenyl)-1,3,4-oxadiazol-2-yl]thiomethyl-3-cephem-4-carboxylate]	> 100	0.78	< 0.006	0.1	0.05	1.56	0.39	0.025	< 0.006	0.39	0.0125	0.05	0.78	< 0.006	< 0.006	0.0125	0.1	0.39	0.78		MIC (E. cloacae 963; [5]): < 0.006 µg/mL

— patent US5061794A, “Cephalosporin derivatives, and antibacterial agents” (priority 1986, dated 1991)
